Values joined by “and” are separate entries in the source; they are usually repeats but may differ in a detail not shown here. Equal values may be shown once.
Key:
Type in all cases: in vivo, human
[1] = Plasma pharmacokinetics of OSI-930; settings: for AUC / Cmax / concentration at 22 day / half-life / Tmax: human, plasma
[2] = test system: pelvic or hepatic lesions; experiment: DCE-MRI functional imaging
advanced solid tumors = experiment: Antitumor response

Q: Which “Rate and extent of absorption, sieved (screened) vs micronized capsules” value ([1]; 400 mg twice a day cohort, 3 vs 4 patients, data not shown) does the source give for `O=C(Nc1ccc(OC(F)(F)F)cc1)c1sccc1NCc1ccnc2ccccc12` [OSI-930] here?
A: similar

Q: And the “Dose proportionality of exposure” value ([1]; 400 and 500 mg twice a day)?
A: dose proportional

Q: And the “Dose proportionality of exposure” value ([1]; between 500 and 600 mg twice a day)?
A: greater than dose proportional

Q: And the AUC ([1]; oral, 50 mg, AUCtau, 50 mg once a day (n = 1), day 22, steady state)?
A: 2590 ng·h/mL

Q: And the Cmax ([1]; oral, 50 mg, Cmax, 50 mg once a day (n = 1), day 22, steady state)?
A: 188 ng/mL

Q: What about the concentration at 22 day ([1]; oral, 50 mg, Cmin, 50 mg once a day (n = 1), day 22, steady state) of the same compound?
A: 69.3 ng/mL

Q: And the half-life ([1]; oral, 50 mg, T1/2, 50 mg once a day (n = 1), day 22, steady state)?
A: 12.6 h

Q: What about the Tmax ([1]; oral, 50 mg, Tmax, 50 mg once a day (n = 1), day 22, steady state) of the same compound?
A: 6 h

Q: And the AUC ([1]; oral, 100 mg, AUCtau, 100 mg once a day (n = 1), day 22, steady state)?
A: 2490 ng·h/mL

Q: What about the Cmax ([1]; oral, 100 mg, Cmax, 100 mg once a day (n = 1), day 22, steady state) of the same compound?
A: 228 ng/mL

Q: And the concentration at 22 day ([1]; oral, 100 mg, Cmin, 100 mg once a day (n = 1), day 22, steady state)?
A: 61.5 ng/mL

Q: And the half-life ([1]; oral, 100 mg, T1/2, 100 mg once a day (n = 1), day 22, steady state)?
A: 18.5 h

Q: And the Tmax ([1]; oral, 100 mg, Tmax, 100 mg once a day (n = 1), day 22, steady state)?
A: 4 h

Q: And the AUC ([1]; oral, 200 mg, AUCtau, 200 mg once a day (n = 1), day 22, steady state)?
A: 4730 ng·h/mL

Q: And the Cmax ([1]; oral, 200 mg, Cmax, 200 mg once a day (n = 1), day 22, steady state)?
A: 463 ng/mL

Q: And the concentration at 22 day ([1]; oral, 200 mg, Cmin, 200 mg once a day (n = 1), day 22, steady state)?
A: 77.9 ng/mL

Q: What about the half-life ([1]; oral, 200 mg, T1/2, 200 mg once a day (n = 1), day 22, steady state) of the same compound?
A: 7.95 h

Q: What about the Tmax ([1]; oral, 200 mg, Tmax, 200 mg once a day (n = 1), day 22, steady state) of the same compound?
A: 6 h

Q: And the AUC ([1]; oral, 400 mg, AUCtau, 400 mg once a day (n = 2), day 22, steady state)?
A: 10700 ng·h/mL

Q: What about the AUC ([1]; oral, 400 mg, AUCtau, 400 mg twice a day (n = 6), day 22, steady state) of the same compound?
A: 7880 ng·h/mL

Q: What about the Cmax ([1]; oral, 400 mg, Cmax, 400 mg once a day (n = 2), day 22, steady state) of the same compound?
A: 873 ng/mL

Q: And the Cmax ([1]; oral, 400 mg, Cmax, 400 mg twice a day (n = 6), day 22, steady state)?
A: 802 ng/mL

Q: What about the concentration at 22 day ([1]; oral, 400 mg, Cmin, 400 mg once a day (n = 2), day 22, steady state) of the same compound?
A: 306 ng/mL

Q: What about the concentration at 22 day ([1]; oral, 400 mg, Cmin, 400 mg twice a day (n = 6), day 22, steady state) of the same compound?
A: 423 ng/mL

Q: And the half-life ([1]; oral, 400 mg, T1/2, 400 mg once a day (n = 2), day 22, steady state)?
A: 13.8 h

Q: And the half-life ([1]; oral, 400 mg, T1/2, 400 mg twice a day (n = 6), day 22, steady state)?
A: 4.07 h

Q: What about the Tmax ([1]; oral, 400 mg, Tmax, 400 mg once a day (n = 2), day 22, steady state) of the same compound?
A: 4 h

Q: And the Tmax ([1]; oral, 400 mg, Tmax, 400 mg twice a day (n = 6), day 22, steady state)?
A: 6.1 h

Q: And the AUC ([1]; oral, 500 mg, AUCtau, 500 mg twice a day (n = 21), day 22, steady state)?
A: 5760 ng·h/mL

Q: And the Cmax ([1]; oral, 500 mg, Cmax, 500 mg twice a day (n = 21), day 22, steady state)?
A: 1010 ng/mL

Q: And the concentration at 22 day ([1]; oral, 500 mg, Cmin, 500 mg twice a day (n = 21), day 22, steady state)?
A: 547 ng/mL

Q: And the half-life ([1]; oral, 500 mg, T1/2, 500 mg twice a day (n = 21), day 22, steady state)?
A: 7.11 h

Q: And the Tmax ([1]; oral, 500 mg, Tmax, 500 mg twice a day (n = 21), day 22, steady state)?
A: 3.6 h

Q: What about the AUC ([1]; oral, 600 mg, AUCtau, 600 mg twice a day (n = 6), day 22, steady state) of the same compound?
A: 11900 ng·h/mL

Q: What about the Cmax ([1]; oral, 600 mg, Cmax, 600 mg twice a day (n = 6), day 22, steady state) of the same compound?
A: 2030 ng/mL

Q: And the concentration at 22 day ([1]; oral, 600 mg, Cmin, 600 mg twice a day (n = 6), day 22, steady state)?
A: 1170 ng/mL

Q: And the half-life ([1]; oral, 600 mg, T1/2, 600 mg twice a day (n = 6), day 22, steady state)?
A: 5.39 h

Q: And the Tmax ([1]; oral, 600 mg, Tmax, 600 mg twice a day (n = 6), day 22, steady state)?
A: 3.5 h

Q: What about the AUC ([1]; oral, 800 mg, AUCtau, 800 mg once a day (n = 2), day 22, steady state) of the same compound?
A: 11300 ng·h/mL

Q: What about the Cmax ([1]; oral, 800 mg, Cmax, 800 mg once a day (n = 2), day 22, steady state) of the same compound?
A: 984 ng/mL

Q: And the concentration at 22 day ([1]; oral, 800 mg, Cmin, 800 mg once a day (n = 2), day 22, steady state)?
A: 304 ng/mL

Q: What about the half-life ([1]; oral, 800 mg, T1/2, 800 mg once a day (n = 2), day 22, steady state) of the same compound?
A: 18.1 h

Q: What about the Tmax ([1]; oral, 800 mg, Tmax, 800 mg once a day (n = 2), day 22, steady state) of the same compound?
A: 4.1 h

Q: What about the AUC ([1]; oral, 1200 mg, AUCtau, 1,200 mg once a day (n = 1), day 22, steady state) of the same compound?
A: 19600 ng·h/mL

Q: What about the Cmax ([1]; oral, 1200 mg, Cmax, 1,200 mg once a day (n = 1), day 22, steady state) of the same compound?
A: 1990 ng/mL

Q: And the concentration at 22 day ([1]; oral, 1200 mg, Cmin, 1,200 mg once a day (n = 1), day 22, steady state)?
A: 493 ng/mL

Q: And the half-life ([1]; oral, 1200 mg, T1/2, 1,200 mg once a day (n = 1), day 22, steady state)?
A: 20.2 h

Q: And the Tmax ([1]; oral, 1200 mg, Tmax, 1,200 mg once a day (n = 1), day 22, steady state)?
A: 4 h

Q: What about the AUC ([1]; oral, 1600 mg, AUCtau, 1,600 mg once a day (n = 3), day 22, steady state) of the same compound?
A: 13000 ng·h/mL

Q: What about the Cmax ([1]; oral, 1600 mg, Cmax, 1,600 mg once a day (n = 3), day 22, steady state) of the same compound?
A: 1070 ng/mL

Q: What about the concentration at 22 day ([1]; oral, 1600 mg, Cmin, 1,600 mg once a day (n = 3), day 22, steady state) of the same compound?
A: 249 ng/mL

Q: And the half-life ([1]; oral, 1600 mg, T1/2, 1,600 mg once a day (n = 3), day 22, steady state)?
A: 12.6 h

Q: What about the Tmax ([1]; oral, 1600 mg, Tmax, 1,600 mg once a day (n = 3), day 22, steady state) of the same compound?
A: 6 h

Q: What about the half-life ([1]; oral, Terminal half-life, twice a day cohort) of the same compound?
A: 2.3 to 7.1 h

Q: What about the Tmax ([1]; po, Time to peak plasma concentrations, once a day and twice a day cohorts) of the same compound?
A: 2 to 10 h

Q: What about the “Linearity of Cmax and AUC” value ([1]; once a day cohorts) of the same compound?
A: linearity in Cmax and AUC in the dose range 50 to 1,200 mg, but not at 1,600 mg

Q: And the “Accumulation in plasma at steady state” value ([1]; twice a day oral administration)?
A: ~2 fold

Q: And the “Steady state plasma concentrations achieved” value ([1]; twice a day oral administration, predose concentrations days 8, 15, 22)?
A: ≤ 8 days

Q: What about the “Decreases of IAUC and AUC from baseline values” ([2]; 4 responding patients, 500 mg twice a day) of the same compound?
A: −4% to −78%

Q: What about the “Decrease in Ktrans and Ve” value ([2]; day 22, 4 of 6 patients with non-GIST tumors) of the same compound?
A: > 40%

Q: What about the “Duration of disease stabilization” value (advanced solid tumors; 1 patient, anthracycline-resistant low-grade sarcoma, once a day) of the same compound?
A: 139 weeks

Q: And the “Duration of RECIST stabilization of disease” value (advanced solid tumors; 1 patient, low-grade sarcoma, escalated from 100 to 1,200 mg once a day)?
A: 33 months

Q: And the “Patients with stable disease as best response” value (advanced solid tumors; 19 evaluable patients with GIST)?
A: 57.9% and 58%

Source: publication PMC3880798 (Clinical cancer research : an official journal of the …, 2013)
